US20100168053A1, “ORAL DELIVERY SYSTEM FOR METHYLCOBALAMIN TO TREAT DISORDERS” (REVITAPOP, priority 2008, published 2010)

Experiment: Onset and duration of effect of methylcobalamin administration (subject reports, QEEG)
Assay type: in vivo, human
Conditions: varies between persons
Protocol: In a person responsive to methylcobalamin, the effects of methylcobalmin administered nasally may begin to occur within minutes of administration. […] In various experiments, subjects reported feeling better in minutes and sometimes seconds. Thus, improvements can occur within the first hour of administration.
Although the effects of a typical administration can last about 24 hours, every person is different. Thus, some people can become depleted of available methylcobalamin in hours or less, while others can feel the benefits for days. The dosage and frequency of methylcobalamin administration can decrease over time, particularly with changing lifestyle or eating habits. For example, reducing intake of milk and wheat products, complex carbohydrates and starches, and improvements to intestinal flora may reduce the need for methylcobalamin.

## C/C1=C2/[N-][C@H]([C@H](CC(N)=O)[C@@]2(C)CCC(=O)NC[C@@H](C)OP(=O)([O-])O[C@H]2[C@@H](O)[C@@H](n3cnc4cc(C)c(C)cc43)O[C@@H]2CO)[C@]2(C)N=C(/C(C)=C3N=C(/C=C4N=C1[C@@H](CCC(N)=O)C\4(C)C)[C@@H](CCC(N)=O)[C@]\3(C)CC(N)=O)[C@@H](CCC(N)=O)[C@]2(C)CC(N)=O.[CH3-].[Co+3] [methylcobalamin]
  duration of effects of a typical administration: about 24 hours
